The source made the active and inactive calls. The rule behind the calls is not given here.
Tests used:
DB = experiment: Downregulation of EZH2 level in human DB cells at 3000 nM measured after 3 days; format: functional, cell-based; conditions: time 3.0 day
[1] = biological target: Serotonin 3 (5-HT3) receptor (Homo sapiens) (UniProt P46098+A5X5Y0+O95264+Q70Z44+Q8WXA8); experiment: Inhibition of 5-HT3 receptor (unknown origin) at 10 uM by radioligand binding assay relative to control; format: protein-complex assay
[2] = biological target: 3-phosphoinositide-dependent protein kinase 1 (Homo sapiens) (UniProt O15530); experiment: Inhibition of full length human N-terminal GST tagged PDK1 (1 to 556 end residues) expressed in baculovirus expression system using T308tide as substrate at 10 uM by mobility shift assay relative to control
[3] = biological target: 5-hydroxytryptamine receptor 1E (Homo sapiens) (UniProt P28566); experiment: Inhibition of 5-HT1E receptor (unknown origin) at 10 uM by radioligand binding assay relative to control
[4] = biological target: 5-hydroxytryptamine receptor 7 (Homo sapiens) (UniProt P34969); experiment: Inhibition of 5-HT7 receptor (unknown origin) at 10 uM by radioligand binding assay relative to control
[5] = biological target: Protein arginine N-methyltransferase 3 (Homo sapiens, UniProt O60678); experiment: Inhibition of PRMT3 (unknown origin) using [3H-SAM] as substrate incubated for 1 hr by scintillation proximity assay
[6] = biological target: Serine/threonine-protein kinase PAK 2 (Homo sapiens) (UniProt Q13177); experiment: Inhibition of full length human N-terminal GST tagged PAK2 (1 to 524 end residues) expressed in baculovirus expression system using DAPK1tide as substrate at 10 uM by mobility shift assay relative to control
[7] = biological target: 5-hydroxytryptamine receptor 1A (Homo sapiens) (UniProt P08908); experiment: Inhibition of 5-HT1A receptor (unknown origin) at 10 uM by radioligand binding assay relative to control
[8] = biological target: Histone-lysine N-methyltransferase KMT5B (Homo sapiens, UniProt Q4FZB7); experiment: Inhibition of SUV420H1 (unknown origin) using [3H-SAM] as substrate incubated for 1 hr by scintillation proximity assay
[9] = biological target: Vascular endothelial growth factor receptor 2 (Homo sapiens) (UniProt P35968); experiment: Inhibition of human cytoplasmic domain N-terminal GST tagged KDR (790 to 1356 end residues) expressed in baculovirus expression system using CSKtide as substrate at 10 uM by mobility shift assay relative to control
[10] = biological target: Tyrosine-protein kinase ITK/TSK (Homo sapiens) (UniProt Q08881); experiment: Inhibition of human cytoplasmic domain N-terminal GST tagged ITK (2 to 620 end residues) expressed in baculovirus expression system using Srctide as substrate at 10 uM by mobility shift assay relative to control
[11] = biological target: Fibroblast growth factor receptor 1 (Homo sapiens) (UniProt P11362); experiment: Inhibition of human cytoplasmic domain N-terminal GST tagged FGFR1 (398 to 822 end residues) expressed in baculovirus expression system using CSKtide as substrate at 10 uM by mobility shift assay relative to control
[12] = biological target: Sodium-dependent dopamine transporter (Homo sapiens) (UniProt Q01959); experiment: Inhibition of DAT (unknown origin) at 10 uM by radioligand binding assay relative to control
[13] = biological target: D(2) dopamine receptor (Homo sapiens) (UniProt P14416); experiment: Inhibition of dopamine D2 receptor (unknown origin) at 10 uM by radioligand binding assay relative to control
[14] = biological target: N-lysine methyltransferase KMT5A (Homo sapiens, UniProt Q9NQR1); experiment: Inhibition of SETD8 (unknown origin) using [3H-SAM] as substrate incubated for 1 hr by scintillation proximity assay
[15] = biological target: 5-hydroxytryptamine receptor 1B (Homo sapiens) (UniProt P28222); experiment: Inhibition of 5-HT1B receptor (unknown origin) at 10 uM by radioligand binding assay relative to control
[16] = biological target: Mitogen-activated protein kinase 9 (Homo sapiens) (UniProt P45984); experiment: Inhibition of human catalytic domain N-terminal GST tagged JNK2 (1 to 364 residues) expressed in Escherichia coli expression system using modified Erktide as substrate at 10 uM by mobility shift assay relative to control
[17] = biological target: N-lysine methyltransferase SMYD2 (Homo sapiens, UniProt Q9NRG4); experiment: Inhibition of SMYD2 (unknown origin) using [3H-SAM] as substrate incubated for 1 hr by scintillation proximity assay
[18] = biological target: Proto-oncogene tyrosine-protein kinase Src (Homo sapiens) (UniProt P12931); experiment: Inhibition of full length human N-terminal GST tagged SRC (1 to 536 end residues) expressed in baculovirus expression system using Srctide as substrate at 10 uM by mobility shift assay relative to control
[19] = biological target: Testis-specific serine/threonine-protein kinase 1 (Homo sapiens) (UniProt Q9BXA7); experiment: Inhibition of full length human N-terminal GST tagged TSSK1 (1 to 367 end residues) expressed in baculovirus expression system using GS as peptide at 10 uM by mobility shift assay relative to control
[20] = biological target: Protein arginine N-methyltransferase 5 (Homo sapiens, UniProt O14744); experiment: Inhibition of PRMT5 (unknown origin) using [3H-SAM] as substrate incubated for 1 hr by scintillation proximity assay
[21] = biological target: RAC-alpha serine/threonine-protein kinase (Homo sapiens) (UniProt P31749); experiment: Inhibition of human catalytic domain N-terminal GST tagged AKT1 (104 to 480 end residues) expressed in baculovirus expression system using crosstide as substrate at 10 uM by mobility shift assay relative to control
[22] = Inhibition of human catalytic domain N-terminal GST tagged p70S6K (1 to 421 residues) expressed in baculovirus expression system using S6K2 peptide as substrate at 10 uM by mobility shift assay relative to control; conditions: condition weaver syndrome
[23] = biological target: 5-hydroxytryptamine receptor 2C (Homo sapiens) (UniProt P28335); experiment: Inhibition of 5-HT2C receptor (unknown origin) at 10 uM by radioligand binding assay relative to control
[24] = biological target: Histone-lysine N-methyltransferase SUV39H2 (Homo sapiens, UniProt Q9H5I1); experiment: Inhibition of SUV39H2 (unknown origin) using [3H-SAM] as substrate incubated for 1 hr by scintillation proximity assay
[25] = Toxicity in Swiss albino mouse assessed as adverse effect at 15 to 150 mg/kg administered as single ip dose measured upto 24 hrs; format: organism-based; conditions: in vivo, dose 15-150 mg/kg
[26] = Inhibition of full length human N-terminal his tagged ABL (2 to 1130 end residues) expressed in baculovirus expression system using ABLtide as substrate at 10 uM by mobility shift assay relative to control; conditions: condition weaver syndrome
[27] = biological target: Muscarinic acetylcholine receptor M5 (Homo sapiens) (UniProt P08912); experiment: Inhibition of M5 receptor (unknown origin) at 10 uM by radioligand binding assay relative to control
Homo sapiens = species: Homo sapiens; experiment: Inhibition of BZP (unknown origin) at 10 uM by radioligand binding assay relative to control

Serine/threonine-protein kinase PAK 2 (Homo sapiens), sequence (Q13177 whole entry): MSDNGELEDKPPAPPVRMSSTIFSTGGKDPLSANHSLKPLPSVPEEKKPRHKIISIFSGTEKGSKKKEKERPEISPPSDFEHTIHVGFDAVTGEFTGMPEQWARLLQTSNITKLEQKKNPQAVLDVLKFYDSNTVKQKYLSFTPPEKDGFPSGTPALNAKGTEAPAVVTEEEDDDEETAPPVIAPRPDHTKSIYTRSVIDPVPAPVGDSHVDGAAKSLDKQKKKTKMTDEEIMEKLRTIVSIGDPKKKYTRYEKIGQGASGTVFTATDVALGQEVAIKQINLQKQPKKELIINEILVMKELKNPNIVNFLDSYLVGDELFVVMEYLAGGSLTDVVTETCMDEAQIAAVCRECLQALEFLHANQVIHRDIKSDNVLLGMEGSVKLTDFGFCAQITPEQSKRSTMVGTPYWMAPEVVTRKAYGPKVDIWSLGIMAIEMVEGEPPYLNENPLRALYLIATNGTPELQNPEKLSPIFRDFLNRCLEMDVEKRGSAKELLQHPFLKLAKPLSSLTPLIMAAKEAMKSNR
Tyrosine-protein kinase ITK/TSK (Homo sapiens), sequence (Q08881 whole entry, the tested form may be a part): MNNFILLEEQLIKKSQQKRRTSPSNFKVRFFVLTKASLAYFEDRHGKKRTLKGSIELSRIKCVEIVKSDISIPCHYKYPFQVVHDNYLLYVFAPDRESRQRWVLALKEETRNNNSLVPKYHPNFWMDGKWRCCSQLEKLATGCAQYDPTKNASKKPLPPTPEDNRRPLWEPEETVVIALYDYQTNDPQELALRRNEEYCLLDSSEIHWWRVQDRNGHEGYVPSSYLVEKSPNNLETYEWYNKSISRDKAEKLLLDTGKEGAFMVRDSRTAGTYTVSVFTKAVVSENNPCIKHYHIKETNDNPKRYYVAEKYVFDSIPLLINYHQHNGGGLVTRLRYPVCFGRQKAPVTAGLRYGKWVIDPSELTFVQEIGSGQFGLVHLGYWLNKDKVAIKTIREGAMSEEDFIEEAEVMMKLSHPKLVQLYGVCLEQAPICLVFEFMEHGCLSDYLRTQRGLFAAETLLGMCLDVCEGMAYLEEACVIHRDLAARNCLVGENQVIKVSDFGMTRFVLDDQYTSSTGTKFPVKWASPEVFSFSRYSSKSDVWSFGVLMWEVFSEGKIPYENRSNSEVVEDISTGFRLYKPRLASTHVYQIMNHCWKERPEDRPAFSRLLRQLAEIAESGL
Muscarinic acetylcholine receptor M5 (Homo sapiens), sequence (P08912 whole entry): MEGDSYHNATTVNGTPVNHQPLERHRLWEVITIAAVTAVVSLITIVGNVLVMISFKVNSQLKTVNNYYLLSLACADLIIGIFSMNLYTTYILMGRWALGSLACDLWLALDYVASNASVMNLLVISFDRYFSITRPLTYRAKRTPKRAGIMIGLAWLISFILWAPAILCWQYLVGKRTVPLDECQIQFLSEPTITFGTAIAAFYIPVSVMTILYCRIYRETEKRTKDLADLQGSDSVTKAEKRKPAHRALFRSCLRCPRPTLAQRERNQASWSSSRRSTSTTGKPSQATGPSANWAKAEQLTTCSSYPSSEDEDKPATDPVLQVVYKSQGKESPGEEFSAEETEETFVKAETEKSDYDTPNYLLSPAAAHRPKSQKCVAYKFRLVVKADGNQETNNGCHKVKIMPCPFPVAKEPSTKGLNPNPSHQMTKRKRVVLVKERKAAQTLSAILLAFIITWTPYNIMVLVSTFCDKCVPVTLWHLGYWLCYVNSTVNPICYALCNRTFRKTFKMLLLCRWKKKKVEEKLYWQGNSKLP
Testis-specific serine/threonine-protein kinase 1 (Homo sapiens), sequence (Q9BXA7 whole entry): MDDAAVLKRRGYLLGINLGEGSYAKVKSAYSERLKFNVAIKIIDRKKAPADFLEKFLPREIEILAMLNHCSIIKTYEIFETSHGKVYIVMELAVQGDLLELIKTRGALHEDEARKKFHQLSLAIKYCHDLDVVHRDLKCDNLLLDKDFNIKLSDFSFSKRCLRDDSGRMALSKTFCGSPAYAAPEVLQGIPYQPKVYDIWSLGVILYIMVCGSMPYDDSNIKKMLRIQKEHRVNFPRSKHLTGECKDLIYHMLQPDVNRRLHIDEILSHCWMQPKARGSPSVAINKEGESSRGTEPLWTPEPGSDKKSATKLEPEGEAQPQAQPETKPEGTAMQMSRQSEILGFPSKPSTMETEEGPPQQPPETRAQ
N-lysine methyltransferase SMYD2, sequence (Q9NRG4 whole entry): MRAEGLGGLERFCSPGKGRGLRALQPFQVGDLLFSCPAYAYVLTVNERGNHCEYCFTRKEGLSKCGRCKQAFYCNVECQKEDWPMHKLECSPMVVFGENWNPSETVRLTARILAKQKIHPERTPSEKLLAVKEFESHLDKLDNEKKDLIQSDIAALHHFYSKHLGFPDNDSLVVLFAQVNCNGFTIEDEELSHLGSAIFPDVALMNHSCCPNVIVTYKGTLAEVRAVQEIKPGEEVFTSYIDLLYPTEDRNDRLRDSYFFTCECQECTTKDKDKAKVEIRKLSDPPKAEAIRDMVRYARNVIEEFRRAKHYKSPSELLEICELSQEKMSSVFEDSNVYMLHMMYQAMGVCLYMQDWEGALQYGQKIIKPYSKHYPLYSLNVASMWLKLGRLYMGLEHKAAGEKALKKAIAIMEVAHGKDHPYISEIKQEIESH
Protein arginine N-methyltransferase 3, sequence (O60678 whole entry): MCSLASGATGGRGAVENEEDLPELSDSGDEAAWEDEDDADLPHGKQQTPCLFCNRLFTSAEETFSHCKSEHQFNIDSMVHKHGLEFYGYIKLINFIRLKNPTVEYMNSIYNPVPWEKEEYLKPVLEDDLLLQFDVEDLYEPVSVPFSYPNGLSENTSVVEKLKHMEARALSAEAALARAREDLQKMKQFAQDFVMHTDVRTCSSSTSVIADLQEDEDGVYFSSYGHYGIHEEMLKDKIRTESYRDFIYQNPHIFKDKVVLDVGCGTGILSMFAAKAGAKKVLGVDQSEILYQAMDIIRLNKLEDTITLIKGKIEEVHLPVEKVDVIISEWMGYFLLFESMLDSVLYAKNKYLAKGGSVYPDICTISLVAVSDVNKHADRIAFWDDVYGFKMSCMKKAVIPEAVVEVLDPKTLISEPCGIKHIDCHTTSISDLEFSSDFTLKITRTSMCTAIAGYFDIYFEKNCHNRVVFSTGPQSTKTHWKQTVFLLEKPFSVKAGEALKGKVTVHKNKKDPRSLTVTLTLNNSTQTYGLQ
Histone-lysine N-methyltransferase SUV39H2, sequence (Q9H5I1 whole entry): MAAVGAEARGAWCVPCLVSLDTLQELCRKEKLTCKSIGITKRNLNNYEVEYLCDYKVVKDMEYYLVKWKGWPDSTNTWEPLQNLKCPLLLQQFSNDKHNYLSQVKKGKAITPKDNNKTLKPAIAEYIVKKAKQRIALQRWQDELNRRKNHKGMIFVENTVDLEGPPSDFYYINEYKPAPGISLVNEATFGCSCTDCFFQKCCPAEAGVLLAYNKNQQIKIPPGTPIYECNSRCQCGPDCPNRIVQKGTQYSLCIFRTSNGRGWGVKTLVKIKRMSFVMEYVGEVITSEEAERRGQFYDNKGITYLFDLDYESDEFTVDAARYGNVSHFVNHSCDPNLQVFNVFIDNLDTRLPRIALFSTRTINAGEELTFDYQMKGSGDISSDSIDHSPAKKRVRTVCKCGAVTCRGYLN
Protein arginine N-methyltransferase 5, sequence (O14744 whole entry, the tested form may be a part): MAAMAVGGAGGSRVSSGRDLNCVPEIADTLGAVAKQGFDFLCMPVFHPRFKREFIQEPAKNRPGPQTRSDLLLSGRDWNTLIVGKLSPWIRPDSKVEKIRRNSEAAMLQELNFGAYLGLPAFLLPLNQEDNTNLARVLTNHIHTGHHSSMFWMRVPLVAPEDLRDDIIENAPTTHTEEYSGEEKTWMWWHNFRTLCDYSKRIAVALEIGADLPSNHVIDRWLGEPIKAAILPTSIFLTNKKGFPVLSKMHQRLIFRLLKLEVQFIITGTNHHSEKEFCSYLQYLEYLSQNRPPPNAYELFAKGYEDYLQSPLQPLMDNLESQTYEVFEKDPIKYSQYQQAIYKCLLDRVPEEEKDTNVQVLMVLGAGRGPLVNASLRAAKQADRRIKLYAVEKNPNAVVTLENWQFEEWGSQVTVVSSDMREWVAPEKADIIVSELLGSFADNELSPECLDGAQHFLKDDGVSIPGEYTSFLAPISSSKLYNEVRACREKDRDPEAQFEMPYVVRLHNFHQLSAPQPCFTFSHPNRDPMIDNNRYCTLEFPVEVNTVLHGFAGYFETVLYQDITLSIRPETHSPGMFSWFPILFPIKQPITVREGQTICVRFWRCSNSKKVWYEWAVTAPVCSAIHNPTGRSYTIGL
Histone-lysine N-methyltransferase KMT5B, sequence (Q4FZB7 whole entry, the tested form may be a part): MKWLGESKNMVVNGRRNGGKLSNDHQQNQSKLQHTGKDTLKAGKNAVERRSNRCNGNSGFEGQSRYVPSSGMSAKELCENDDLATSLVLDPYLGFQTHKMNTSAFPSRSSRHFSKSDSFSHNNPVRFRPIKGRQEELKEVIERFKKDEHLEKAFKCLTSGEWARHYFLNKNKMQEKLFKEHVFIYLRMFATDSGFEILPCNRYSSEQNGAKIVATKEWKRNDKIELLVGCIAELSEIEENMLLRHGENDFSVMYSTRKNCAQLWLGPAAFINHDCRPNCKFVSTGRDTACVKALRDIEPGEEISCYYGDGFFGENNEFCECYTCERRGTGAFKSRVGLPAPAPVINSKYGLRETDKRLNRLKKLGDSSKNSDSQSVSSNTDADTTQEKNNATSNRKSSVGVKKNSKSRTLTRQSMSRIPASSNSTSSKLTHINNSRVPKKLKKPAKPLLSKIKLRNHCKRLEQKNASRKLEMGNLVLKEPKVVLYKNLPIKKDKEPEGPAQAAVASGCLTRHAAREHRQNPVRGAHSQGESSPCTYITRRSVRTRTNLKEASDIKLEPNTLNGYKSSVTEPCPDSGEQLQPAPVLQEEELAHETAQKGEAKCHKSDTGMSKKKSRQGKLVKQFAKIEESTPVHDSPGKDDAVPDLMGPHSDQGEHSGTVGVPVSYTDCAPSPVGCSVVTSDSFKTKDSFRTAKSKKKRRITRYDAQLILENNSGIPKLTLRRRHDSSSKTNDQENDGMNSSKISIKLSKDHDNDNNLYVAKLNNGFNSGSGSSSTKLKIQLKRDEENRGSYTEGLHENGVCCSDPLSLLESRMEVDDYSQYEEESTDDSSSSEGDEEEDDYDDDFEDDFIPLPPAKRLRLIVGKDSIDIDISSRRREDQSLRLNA

## CCCc1cc(C)[nH]c(=O)c1CNC(=O)c1cc(-c2ccc(N3CCN(C(C)C)CC3)nc2)cc2c1cnn2C(C)C
DB
  Activity: inactive
[1]
  inhibition: 12%
[2]
  inhibition: -6%
[3]
  inhibition: 2%
[4]
  inhibition: -4%
[5]
  IC50: > 100 µM
[6]
  inhibition: 4%
[7]
  inhibition: 11%
[8]
  IC50: > 100 µM
[9]
  inhibition: -2%
[10]
  inhibition: -2%
[11]
  inhibition: -9%
[12]
  inhibition: 36%
[13]
  inhibition: 9%
[14]
  IC50: > 100 µM
[15]
  inhibition: 44%
[16]
  inhibition: 5%
[17]
  IC50: > 100 µM
[18]
  inhibition: -1%
[19]
  inhibition: 5%
[20]
  IC50: > 100 µM
[21]
  inhibition: -6%
[22]
  inhibition at 10 µM: 6%
[23]
  inhibition: 22%
[24]
  IC50: > 100 µM
[25]
  Activity: Non-Toxic
[26]
  inhibition at 10 µM: -4%
[27]
  inhibition: 9%
Homo sapiens
  inhibition: -6%

From ChEMBL document CHEMBL5705896 (ACS Chem Biol, 2013)
